Data reported in ChEMBL document CHEMBL1201862, “PubChem BioAssay data set” (2004).
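These data come from cells grown in 96-well plates and exposed to compound for 48 hours at five concentrations. Abbreviation: GI50, concentration required for 50% inhibition of growth.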 Activity calls are given as the source filed them. Rule as the data show it: active = GI50 up to about 1.1 µM and inactive = higher.

Experiments:
Assay in all cases: growth of human tumour cells (NCI), 48 h
DLD-1 = test system: DLD-1
DMS-114 = test system: DMS-114
DMS-273 = test system: DMS-273
HOP-18 = test system: HOP-18
LXFL 529 = test system: LXFL 529
SNB-78 = test system: SNB-78
Hs-578T = test system: Hs-578T
KM-20L2 = test system: KM-20L2
RXF 631 = test system: RXF 631

O=C(NN1C(=O)C(Cl)C1c1cccc(O)c1)c1ccccc1O (centres undefined)
GI50 (DLD-1): > 100 µM (inactive) | GI50 (DMS-114): > 100 µM (inactive) | GI50 (DMS-273): > 100 µM (inactive) | GI50 (HOP-18): 24.8 µM (inactive) | GI50 (LXFL 529): > 100 µM (inactive) | GI50 (SNB-78): > 100 µM (inactive)

CC12CC(=O)C3C(CCC4=CC(=O)CCC43C)C1CC=C2CC(=O)O (centres undefined)
GI50 (Hs-578T): > 100 µM (inactive)

Cc1cc2c(SCc3ccccc3Cl)nc(N)nc2nc1C
GI50 (Hs-578T): 36.3 µM (inactive)

Nc1nc(-c2cccs2)cs1
GI50 (Hs-578T): 37.9 µM (inactive)

CCOC(=O)c1csc(NC(=O)CN2CCOCC2)n1
GI50 (Hs-578T): > 100 µM (inactive)

O=[N+]([O-])c1ccc(C2c3c(O)nc(S)nc3Oc3nc(S)nc(O)c32)cc1
GI50 (Hs-578T): > 100 µM (inactive)

CCN(CC)CCNC(=O)C1COc2ccc(-c3cc(=O)c4ccccc4o3)cc2O1 (centres undefined)
GI50 (DLD-1): 22.9 µM (inactive) | GI50 (DMS-273): 19.4 µM (inactive) | GI50 (HOP-18): 21 µM (inactive) | GI50 (KM-20L2): 17.5 µM (inactive) | GI50 (SNB-78): 10.1 µM (inactive)

O=C(CC(O)(C(F)(F)F)C(F)(F)F)C(CCCl)C(O)(C(F)(F)F)C(F)(F)F (centres undefined)
GI50 (Hs-578T): 67.6 µM (inactive)

CC1=C(O)C(=O)C2C(=O)C1C(C)C2c1ccc(C)cc1 (centres undefined)
GI50 (DLD-1): > 100 µM (inactive) | GI50 (DMS-273): > 100 µM (inactive) | GI50 (KM-20L2): 3.06 µM (inactive) | GI50 (LXFL 529): > 100 µM (inactive) | GI50 (SNB-78): > 100 µM (inactive)

Cc1c(OCc2cccc3ccccc23)ccc2c(=O)cc(SCCN3CCOCC3)oc12
GI50 (Hs-578T): > 100 µM (inactive)

Cc1cn2c(C)csc2c1P(=O)(OC(C)C)OC(C)C
GI50 (Hs-578T): > 100 µM (inactive)

Cn1c(=O)c2c(nc(Nc3ccc(Cl)cc3)n3c(=O)n(-c4ccccc4)c(=O)n23)n(C)c1=O
GI50 (Hs-578T): > 100 µM (inactive)

C[C@]12CC[C@H](OC(=O)Nc3ccccc3)CC1=CC[C@@H]1C2CC[C@]2(C)/C(=N/OC(=O)Nc3ccccc3)CCC12 (some centres undefined)
GI50 (DMS-114): 2.71 µM (inactive) | GI50 (DMS-273): 37.3 µM (inactive) | GI50 (HOP-18): 2.4 µM (inactive) | GI50 (KM-20L2): 3.2 µM (inactive) | GI50 (LXFL 529): 1.12 µM (inactive) | GI50 (RXF 631): 6.37 µM (inactive) | GI50 (SNB-78): > 100 µM (inactive)

O=C1NC(N2CCOCC2)=N/C1=C\c1ccc(O)cc1
GI50 (Hs-578T): 4.84 µM (inactive)

O=C1N/C(=N/N=C/c2ccccc2)N/C1=C\c1c[nH]c2ccccc12
GI50 (Hs-578T): > 100 µM (inactive)

Cc1ccc2c(c1)C=CC(C#N)N2C(=O)Oc1ccccc1 (centres undefined)
GI50 (Hs-578T): 41.6 µM (inactive)

COc1cc2c(cc1O)C(=O)O[C@@H]1CC=C3CCN(C)[C@H]3[C@H]21
GI50 (Hs-578T): > 25 µM (inactive)

O=C1c2ccccc2S(=O)(=O)c2c1cccc2[N+](=O)[O-]
GI50 (Hs-578T): 4.25 µM (inactive)

CCc1cccc(C(C)C)c1NC(=O)CC1Sc2ccccc2NC1=O (centres undefined)
GI50 (DLD-1): 47.4 µM (inactive) | GI50 (DMS-114): 44.1 µM (inactive) | GI50 (DMS-273): 34 µM (inactive) | GI50 (HOP-18): > 100 µM (inactive) | GI50 (LXFL 529): 43.5 µM (inactive) | GI50 (SNB-78): > 100 µM (inactive)

[O-][S+](Nc1ccccc1)c1ccc(Cl)cc1 (centres undefined)
GI50 (Hs-578T): 38.1 µM (inactive)

C=C=C(C(=O)OC)[S+]([O-])c1ccccc1[N+](=O)[O-] (centres undefined)
GI50 (DMS-114): > 100 µM (inactive) | GI50 (DMS-273): > 100 µM (inactive) | GI50 (HOP-18): > 100 µM (inactive) | GI50 (KM-20L2): > 100 µM (inactive) | GI50 (LXFL 529): > 100 µM (inactive) | GI50 (SNB-78): > 100 µM (inactive)

CCCCCCc1cc2cc(C(=O)Nc3ccc(F)cc3)c(=N)oc2cc1O
GI50 (Hs-578T): 0.9 µM (active)

C=CCNC(=O)N(CCCC(NC(C)=O)C(=O)NCc1ccccc1)Cc1ccccc1 (centres undefined)
GI50 (DMS-114): > 100 µM (inactive) | GI50 (DMS-273): > 100 µM (inactive) | GI50 (HOP-18): > 100 µM (inactive) | GI50 (KM-20L2): > 100 µM (inactive) | GI50 (LXFL 529): > 100 µM (inactive)

CC(C)C1N2CCCCC2[C@@H]2c3[nH]c4ccccc4c3CCN12 (some centres undefined)
GI50 (DLD-1): > 100 µM (inactive) | GI50 (DMS-114): > 100 µM (inactive) | GI50 (DMS-273): > 100 µM (inactive) | GI50 (HOP-18): > 100 µM (inactive) | GI50 (KM-20L2): > 100 µM (inactive) | GI50 (LXFL 529): > 100 µM (inactive) | GI50 (SNB-78): > 100 µM (inactive)

CCOC(=O)/C(=C\c1cccc(C)c1)C(C)=O
GI50 (Hs-578T): 20.7 µM (inactive)

CC(=O)CCCCO
GI50 (DMS-114): > 100 µM (inactive) | GI50 (DMS-273): > 100 µM (inactive) | GI50 (LXFL 529): > 100 µM (inactive) | GI50 (SNB-78): > 100 µM (inactive)

CCCCC1c2c([nH]c3ccccc23)C2C(=O)N(c3ccc(OC)cc3)C(=O)C2C1CCC (centres undefined)
GI50 (Hs-578T): 1.87 µM (inactive)

COc1cc2c(cc1OC)C(Cl)C(c1ccc(Cl)c(Cl)c1)=C2Cl (centres undefined)
GI50 (DMS-114): 3.42 µM (inactive) | GI50 (DMS-273): 3.86 µM (inactive) | GI50 (HOP-18): 12.9 µM (inactive) | GI50 (KM-20L2): 8.71 µM (inactive) | GI50 (LXFL 529): 5.15 µM (inactive) | GI50 (SNB-78): 5.56 µM (inactive)

COC(=O)/C=C(C)/C=C\COC1CCCCO1 (centres undefined)
GI50 (Hs-578T): > 100 µM (inactive)

CNCCCNC(=S)Cn1cc(C)c(=O)[nH]c1=O
GI50 (Hs-578T): > 35.1 µM (inactive)

COc1ccc(OC(C)=O)c2c1CCC=CC2=O
GI50 (DLD-1): > 10 µM (inactive) | GI50 (DMS-114): 19.1 µM (inactive) | GI50 (DMS-273): 16.6 µM (inactive) | GI50 (LXFL 529): 9.57 µM (inactive) | GI50 (SNB-78): 38.5 µM (inactive)

NNC(=O)c1cc([N+](=O)[O-])ccc1NC(=O)C12CC3CC(CC(C3)C1)C2
GI50 (Hs-578T): 5.66 µM (inactive)

Cc1cc(C)c(C2CC(O)C(CO)O2)cc1C (centres undefined)
GI50 (Hs-578T): > 100 µM (inactive)
